Measured values published in article PMC12444472, “BCI inhibits MKP3 by targeting the kinase-binding domain and disrupting ERK2 interaction” (The Journal of Biological Chemistry, 2025).

Assays:
[1] = molecular target: T1, MKP3^KBD and ERK2 complex (Homo sapiens, UniProt Q16828); test: NMR competitive binding titration of ERK2 and BCI; conditions: excess BCI added to MKP3^KBD and ERK2 complex
T1 construct: spectra of ^15N-MKP3^1–154 in the presence of ERK2; made in house; host or cells: Escherichia coli BL21(DE3)
T1 sequence (Q16828 1-154): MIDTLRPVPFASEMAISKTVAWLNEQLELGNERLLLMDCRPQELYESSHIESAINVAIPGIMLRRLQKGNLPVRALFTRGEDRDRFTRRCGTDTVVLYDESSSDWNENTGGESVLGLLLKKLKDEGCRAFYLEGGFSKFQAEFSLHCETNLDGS
Experimental: NMR data were collected at 298 K on a Bruker AVANCE NEO 800 MHz spectrometer (Bruker BioSpin) equipped with a ^1H&^19F/^13C/^15N TCI cryogenic probe. Backbone resonances of MKP3^1–154 were assigned using 2D/3D experiments, including 2D ^1H–^15N HSQC and 3D ^1H/^13C/^15N CBCA(CO)NH, HNCACB, HNCO, and HN(CA)CO, performed with uniformly ^13C/^15N labeled protein at a final concentration of 0.39 mM in buffer containing 20 mM imidazole (pH 6.0), 100 mM NaCl, 5 mM DTT, 0.5 mM EDTA, and 5% (v/v) D2O. The buffer used for backbone resonance assignment was similar to that used for the previously reported NMR structure ([15]). […] The relaxation rates R1 (1/T1) and R2 (1/T2) for each residue were determined by fitting the peak intensities from spectra acquired at the various delay times to a single-exponential decay function: I/I0 = exp(-R1,2·t), where I0 is the intensity at t = 0, and I is the intensity at a delay time t. […] Repeated experiments were performed to estimate uncertainties, and the propagated error for each NOE value was calculated using the following equation: σNOE = NOE × ((σsat/Isat)^2+(σunsat/Iunsat)^2)^1/2, where σsat and σunsat are the SDs of the saturated and unsaturated spectra, respectively, and Isat and Iunsat are the corresponding signal intensities. NMR data were processed using TopSpin 4.1.1 (Bruker BioSpin) or NMRPipe ([54]) and analyzed with POKY ([55]).

[2] = molecular target: T2, MKP3^FL (Homo sapiens, UniProt Q16828); test: Phosphatase activity toward pNPP in the presence of ERK2; assay type: biochemical
T2 construct: MKP3(1–381) (MKP3^FL); made in house; host or cells: Escherichia coli BL21(DE3)
T2 sequence (Q16828 1-381): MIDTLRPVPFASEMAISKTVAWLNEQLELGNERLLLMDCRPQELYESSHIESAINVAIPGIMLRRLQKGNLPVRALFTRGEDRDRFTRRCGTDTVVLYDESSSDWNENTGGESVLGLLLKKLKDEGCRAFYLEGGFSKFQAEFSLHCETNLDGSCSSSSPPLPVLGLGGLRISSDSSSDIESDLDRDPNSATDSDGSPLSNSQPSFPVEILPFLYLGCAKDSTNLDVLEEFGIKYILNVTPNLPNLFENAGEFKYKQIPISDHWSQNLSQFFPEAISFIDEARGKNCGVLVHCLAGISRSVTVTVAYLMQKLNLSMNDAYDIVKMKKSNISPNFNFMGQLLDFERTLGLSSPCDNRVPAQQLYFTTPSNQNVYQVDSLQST
Experimental: The phosphatase activity of MKP3 toward pNPP was measured using continuous spectrophotometric assays, either in the absence or the presence of ERK2 at a 1:1 M ratio with MKP3. Experiments were conducted at 25 °C in a reaction mixture with a total volume of 1.8 ml, containing 50 mM Mops (pH 7.0), 100 mM NaCl, and 0.1 mM EDTA. MKP3 (1 μM) was preincubated with varying concentrations of the inhibitor BCI for 5 min before initiating the reaction by adding pNPP at concentrations ranging from 0 to 14 mM. Continuous absorbance changes were recorded using a PerkinElmer LAMBDA 45 spectrophotometer equipped with a magnetic stirrer in the cuvette holder. The production of p-nitrophenol was monitored at 410 nm using an extinction coefficient of 18,000 M^-1 cm^-1.
Stock solutions of BCI (dissolved in DMSO) at different concentrations were prepared to maintain a constant DMSO concentration across all BCI concentrations in the phosphatase inhibition assays, thereby eliminating potential effects of varying DMSO levels on detection. Initial reaction rates were determined from the linear slope of progress curves, and the data were analyzed using nonlinear regression. Kinetic parameters (kcat and Km) were obtained by fitting the data to the Michaelis–Menten equation: v0 = kcat[E][S]/(Km + [S]). […]

O=C1/C(=C/c2ccccc2)C(NC2CCCCC2)c2ccccc21 (stereo not drawn) [BCI, (E)-2-benzylidene-3-(cyclohexylamino)-2,3-dihydro-1H-inden-1-one]
effect on ERK2-bound MKP3^KBD spectrum [1]: reversion of specific MKP3^KBD peaks to their ERK2-unbound state
ERK2-induced MKP3 activity relative to its initial level ([2]; BCI at molar concentration 20 times that of ERK2): one-seventh
effect on MKP3's Michaelis constant (Km) for pNPP ([2]; ERK2 at 1:1 with MKP3^FL): did not significantly alter
